Results as given in patent US6274715A, “Tricyclic erythromycin derivatives” (priority 1997, dated 2001).

Key:
Format in all cases: cell-based
[1] = system: STAPHYLOCOCCUS AUREUS ATCC 6538P; test: In vitro antibacterial activity, MIC, BHI agar dilution; conditions: S. aureus ATCC 6538P, 35-37° C., 20 to 24 hours, unit assumed
[2] = system: STAPHYLOCOCCUS AUREUS A5177; test: as above; conditions: S. aureus A5177, unit assumed
[3] = system: STAPHYLOCOCCUS AUREUS A-5278; test: as above; conditions: S. aureus A-5278, unit assumed
[4] = system: STAPHYLOCOCCUS AUREUS CMX 642A; test: as above; conditions: S. aureus CMX 642A, unit assumed
[5] = system: STAPHYLOCOCCUS AUREUS NCTC10649M; test: as above; conditions: S. aureus NCTC10649M, unit assumed
[6] = system: STAPHYLOCOCCUS AUREUS CMX 553; test: as above; conditions: S. aureus CMX 553, unit assumed
[7] = system: STAPHYLOCOCCUS AUREUS 1775; test: as above; conditions: S. aureus 1775, unit assumed
[8] = system: STAPHYLOCOCCUS EPIDERMIDIS 3519; conditions: S. epidermidis 3519; BHI agar; unit assumed
[9] = system: EN[…] ATCC 8043; test: In vitro antibacterial activity, MIC, BHI agar dilution; conditions: E. faecium ATCC 8043, unit assumed
In short: (§1)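 Twelve successive aqueous dilutions of compound in Brain Heart Infusion agar were inoculated with 1:100 culture dilutions (1:10 for slow growers such as Micrococcus, Streptococcus) by Steers replicator and incubated at 35-37° C for 20 to 24 hours. MIC was the lowest concentration giving no growth, slight haze or sparse colonies versus drug-free control.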

[10] = system: M[…] ATCC 4698; test: as above; conditions: M. luteus ATCC 4698, unit assumed
In short: as §1

[11] = system: M[…] ATCC 9341; test: as above; conditions: M. luteus ATCC 9341, unit assumed
In short: as §1

[12] = system: STR[…] 508; test: as above; conditions: S. agalactiae CMX 508, unit assumed
In short: as §1

[13] = system: STREPTOCOCCUS BOVIS A-5169; test: as above; conditions: S. bovis A-5169, unit assumed
[14] = system: STREPTOCOCCUS PYOGENES EES61; test: as above; conditions: S. pyogenes EES61, unit assumed
[15] = system: STREPTOCOCCUS PYOGENES 930; test: as above; conditions: S. pyogenes 930, unit assumed
[16] = system: STREPTOCOCCUS PYOGENES PIU 2548; test: as above; conditions: S. pyogenes PIU 2548, unit assumed
[17] = system: ESCHERICHIA COLI JUHL; conditions: E. coli JUHL; BHI agar; unit assumed
[18] = system: ESCHERICHIA COLI SS; test: In vitro antibacterial activity, MIC, BHI agar dilution; conditions: E. coli SS, unit assumed
[19] = system: ESCHERICHIA COLI DC-2; test: as above; conditions: E. coli DC-2, unit assumed
[20] = system: ESCHERICHIA COLI H560; test: as above; conditions: E. coli H560, unit assumed
[21] = system: ESCHERICHIA COLI KNK 437; conditions: E. coli KNK 437; BHI agar; unit assumed
[22] = system: ENTEROBACTER AEROGENES ATCC 13048; test: In vitro antibacterial activity, MIC, BHI agar dilution; conditions: E. aerogenes ATCC 13048, unit assumed
[23] = system: KLEBSIELLA PNEUMONIAE ATCC 8045; test: as above; conditions: K. pneumoniae ATCC 8045, unit assumed
[24] = system: PROVIDENCIA STUARTII CMX 640; conditions: P. stuartii CMX 640; BHI agar; unit assumed
[25] = system: PSEUDOMONAS AERUGINOSA BMH10; test: In vitro antibacterial activity, MIC, BHI agar dilution; conditions: P. aeruginosa BMH10, unit assumed
[26] = system: PSEUDOMONAS AERUGINOSA 5007; test: as above; conditions: P. aeruginosa 5007, unit assumed
[27] = system: PSEUDOMONAS AERUGINOSA K799/WT; test: as above; conditions: P. aeruginosa K799/WT, unit assumed
[28] = system: PSEUDOMONAS AERUGINOSA K799/61; test: as above; conditions: P. aeruginosa K799/61, unit assumed
[29] = system: PSEUDOMONAS CEPACIA 296I; test: as above; conditions: P. cepacia 296I, unit assumed
[30] = system: ACINETOBACTER CALCOACETICUS CMX 669; test: as above; conditions: A. calcoaceticus CMX 669, unit assumed
[31] = system: PSEUDOMONAS AERUGINOSA DPHD-5263; test: as above; conditions: P. aeruginosa DPHD-5263, unit assumed
[32] = system: PSEUDOMONAS AERUGINOSA DPHD-2862; test: as above; conditions: P. aeruginosa DPHD-2862, unit assumed
[33] = system: CANDIDA ALBICANS CCH 442; test: as above; conditions: C. albicans CCH 442, unit assumed
[34] = system: MYCOBACTERIUM SMEGMATIS ATCC 114; test: as above; conditions: M. smegmatis ATCC 114, unit assumed

Measured: MIC

CC[C@H]1OC(=O)[C@H](C)C(=O)[C@H](C)[C@@H](O[C@@H]2O[C@H](C)C[C@H](N(C)C)[C@H]2O)[C@](C)(OC)C[C@@H](C)C2=NC[C@@H](COCc3ccccc3)N3C(=O)O[C@@]1(C)[C@H]3[C@H]2C [Example 37]
50 µg/mL: [17] | [22] | [23] | [25]
25 µg/mL: [19] | [20] | [21] | [30]
100 µg/mL: [15] | [29]
≤ 0.005 µg/mL: [13] | [14]
0.78 µg/mL: [28]
0.01 µg/mL: [11]
0.1 µg/mL: [1] | [2] | [4] | [5] | [6] | [8]
0.2 µg/mL: [10]
0.05 µg/mL: [9]
0.02 µg/mL: [12]
0.39 µg/mL: [16] | [18] | [34]
> 100 µg/mL: all other assays above

CC[C@H]1OC(=O)[C@H](C)C(=O)[C@H](C)[C@@H](O[C@@H]2O[C@H](C)C[C@H](N(C)C)[C@H]2O)[C@](C)(OC)C[C@@H](C)C2=N[C@H](CN(C)Cc3ccccc3)CN3C(=O)O[C@@]1(C)[C@H]3[C@H]2C [Example 58]
0.2 µg/mL: [9]
3.1 µg/mL: [28] | [34]
0.78 µg/mL: [1] | [2] | [4] | [5] | [6] | [8]
0.1 µg/mL: [11]
0.39 µg/mL: [10] | [16] | [18]
0.02 µg/mL: [12]
50 µg/mL: [20]
0.01 µg/mL: [13] | [14]
> 100 µg/mL: all other assays above
